# Results published in patent US20150104868A1, “Methods of Maintaining and Improving Biological Cell Function and Activity” (GARGILL INCORPORATED, priority 2012, published 2015).
# System: CRL 1730 HUVECs
# Test: Microarray transcriptomics of HUVEC (HGERT/HG, HG/NG)
# Format: cell-based, human
# [1] = HUVEC, 5 mM ERT + 30 mM glucose vs 30 mM glucose
# [2] = Prostate cancer, 8MP signaling pathway
# [3] = Prostate cancer, Calcium/calmodulin
# [4] = Prostate cancer, Carbohydrate binding
# [5] = Prostate cancer, DNA binding, second listing
# [6] = Prostate cancer, ILK signaling (integrin linked kinase)
# [7] = Prostate cancer, Reactive oxygen species
# [8] = Prostate cancer, Tyrosine phosphatase activity
# [9] = Prostate cancer, Zinc ion transport
structure (smiles),measurement,setting,value
"OC[C@@H](O)[C@@H](O)CO [ERT, meso-1,2,3,4-tetrahydroxybutane]",HGERT/HG transcript TRIT1,[1],0.98 Ω
same,HGERT/HG transcript TXNDC11,[1],Ψ 1.01
same,HGERT/HG transcript U8A3,[1],0.99
same,HGERT/HG transcript USP22,[1],Ψ 1.01
same,HGERT/HG transcript VIM,[1],1.00 Ω
same,HGERT/HG transcript VPS4B,[1],0.99 Ω
same,HGERT/HG transcript VPS26A,[1],0.99
same,HGERT/HG transcript WDFY2,[1],Ψ 1.01
same,HGERT/HG transcript YME1L1,[1],1.00 Ω
same,HGERT/HG transcript ZMYM1,[1],0.98 Ω
same,HGERT/HG transcript ZNF59B,[1],0.99
same,HGERT/HG transcript ZNF318,[1],Ψ 1.02
same,HGERT/HG BMP6 (Bone morphogenetic protein 6),[2],Ψ 1.01
same,"HGERT/HG UBE2D1 (Ubiquitin-conjugating enzyme E2D1 (U8C4/5 homolog, yeast))",[2],0.99 Ω
same,"HGERT/HG CORO1A (Coronin, actin binding protein, 1A)","Prostate cancer, Actin binding",0.94 Ω
same,HGERT/HG PLEC1 (Plectin),"Prostate cancer, Actin binding",Ψ 1.03
same,"HGERT/HG C6orf66 (NADH dehydrogenase (ubiquinone) 1 alpha subcomplex, assembly factor 4)",[3],0.99 Ω
same,HGERT/HG CIB1 (Calcium and integrin binding 1 (calmyrin)),[3],Ψ 1.00
same,"HGERT/HG GJC1 (Gap junction protein, gamma 1, 45kDa)",[3],Ψ 1.02
same,HGERT/HG HPCAL1 (Hippocalcin-like 1),[3],Ψ 1.01
same,HGERT/HG SEC31A (SEC31 homolog A (S. cerevisiae)),[3],Ψ 1.01
same,"HGERT/HG SLC25A24 (Solute carrier family 25 (mitochondrial carrier; phosphate carrier), member 24)",[3],0.99 Ω
same,"HGERT/HG B4GALT4 (UDP-Gal:betaGlcNAc beta 1,4-galactosyltransferase, polypeptide 4)",[4],0.98 Ω
same,HGERT/HG C10orf125 (Chromosome 10 open reading frame 125),[4],0.99 Ω
same,HGERT/HG EXTL3 (Exostoses (multiple)-like 3),[4],Ψ 1.02
same,HGERT/HG GCS2 (Mannosyl-oligosaccharide glucosidase),[4],Ψ 1.02
same,"HGERT/HG ADAR (Adenosine deaminase, RNA-specific)","Prostate cancer, DNA binding",Ψ 1.01
same,HGERT/HG ATF6 (Activating transcription factor 6),"Prostate cancer, DNA binding",Ψ 1.01
same,HGERT/HG BBX (Bobby sox homolog (Drosophilia)),"Prostate cancer, DNA binding",Ψ 1.02
same,HGERT/HG DBT (Dihydrolipoamide branched chain transacylase E2),"Prostate cancer, DNA binding",Ψ 1.01
same,HGERT/HG DEAF1 (Deformed epidermal autoregulatory factor 1 (Drosophila)),"Prostate cancer, DNA binding",Ψ 1.02
same,HGERT/HG FOXC1 (Forkhead box C1),"Prostate cancer, DNA binding",Ψ 1.01
same,HGERT/HG FOXN2 (Forkhead box N2),"Prostate cancer, DNA binding",0.98 Ω
same,HGERT/HG FOXN3 (Forkhead box N3),"Prostate cancer, DNA binding",Ψ 1.01
same,HGERT/HG FOXP1 (Forkhead box P1),"Prostate cancer, DNA binding",Ψ 1.01
same,HGERT/HG GPBP1 (GC-rich promoter binding protein 1),"Prostate cancer, DNA binding",0.99 Ω
same,HGERT/HG GZF1 (GDNF-inducible zinc finger protein 1),"Prostate cancer, DNA binding",Ψ 1.01
same,HGERT/HG HBP1 (HMG-box transcription factor 1),"Prostate cancer, DNA binding",0.99 Ω
same,"HGERT/HG HKR1 (HKR1, GU-Kruppel zinc finger family member)","Prostate cancer, DNA binding",0.98 Ω
same,HGERT/HG HNF1B (HNF1 homeobox B),"Prostate cancer, DNA binding",Ψ 1.03
same,"HGERT/HG KIN (KIN, antigenic determinant of recA protein homolog (mouse))","Prostate cancer, DNA binding",0.99 Ω
same,HGERT/HG MRRF (Mitochondrial ribosome recycling factor),"Prostate cancer, DNA binding",0.98 Ω
same,HGERT/HG MXD4 (MAX dimerization protein 4),"Prostate cancer, DNA binding",Ψ 1.02
same,HGERT/HG PCBP1 (Poly(rC) binding protein 1),"Prostate cancer, DNA binding",Ψ 1.01
same,"HGERT/HG PIAS4 (Protein inhibitor of activated STAT, 4)","Prostate cancer, DNA binding",Ψ 1.03
same,"HGERT/HG POLG (Polymerase (DNA directed), gamma)","Prostate cancer, DNA binding",Ψ 1.01
same,"HGERT/HG POLO1 (Polymerase (DNA directed), delta 1, catalytic subunit 125kDa)","Prostate cancer, DNA binding",Ψ 1.02
same,"HGERT/HG POLR2K (Polymerase (RNA) II (DNA directed) polypeptide K, 7.0kDa)","Prostate cancer, DNA binding",0.98 Ω
same,"HGERT/HG POLR3F (Polymerase (RNA) III (DNA directed) polypeptide F, 39 kDa)","Prostate cancer, DNA binding",0.98 Ω
same,HGERT/HG PRRX1 (Paired related homeobox 1),"Prostate cancer, DNA binding",Ψ 1.01
same,HGERT/HG PUF60 (Poly-U binding splicing factor 60KDa),"Prostate cancer, DNA binding",Ψ 1.01
same,HGERT/HG RABGEF1 (RAB guanine nucleotide exchange factor (GEF) 1),"Prostate cancer, DNA binding",0.99 Ω
same,HGERT/HG RNF11 (Ring finger protein 11),"Prostate cancer, DNA binding",0.99 Ω
same,"HGERT/HG RPA3 (Replication protein A3, 14kDa)","Prostate cancer, DNA binding",0.99 Ω
same,HGERT/HG RYBP (RING1 and YY1 binding protein),"Prostate cancer, DNA binding",Ψ 1.01
same,HGERT/HG SARNP (SAP domain containing ribonucleoprotein),"Prostate cancer, DNA binding",0.98 Ω
same,HGERT/HG SOS1 (Son of sevenless homolog 1 (Drosophila)),"Prostate cancer, DNA binding",Ψ 1.06
same,HGERT/HG SOX4 (SRY (sex determining region Y)-box 4),"Prostate cancer, DNA binding",Ψ 1.01
same,HGERT/HG T8RG1 (Transforming growth factor beta regulator 1),"Prostate cancer, DNA binding",Ψ 1.02
same,HGERT/HG TCF12 (Transcription factor 12),"Prostate cancer, DNA binding",0.99 Ω
same,HGERT/HG TCF25 (Transcription factor 25 (basic helix-loop-helix)),"Prostate cancer, DNA binding",Ψ 1.01
same,HGERT/HG TOX4 (TOX high mobility group box family member 4),"Prostate cancer, DNA binding",Ψ 1.01
same,HGERT/HG TRIM26 (Tripartite motif-containing 26),"Prostate cancer, DNA binding",0.99 Ω
same,"HGERT/HG TTF1 (Transcription termination factor, RNA polyrnerase 1)","Prostate cancer, DNA binding",Ψ 1.01
same,HGERT/HG UBN1 (Ubinuclein 1),"Prostate cancer, DNA binding",Ψ 1.02
same,"HGERT/HG ZBED3 (Zinc finger, BED-type containing 3)","Prostate cancer, DNA binding",Ψ 1.01
same,HGERT/HG ZNF83 (Zinc finger protein 83),"Prostate cancer, DNA binding",0.98 Ω
same,HGERT/HG ZNF232 (Zinc finger protein 232),"Prostate cancer, DNA binding",Ψ 1.01
same,HGERT/HG ZNF267 (Zinc finger protein 267),"Prostate cancer, DNA binding",0.98 Ω
same,HGERT/HG ZNF562 (Zinc finger protein 562),"Prostate cancer, DNA binding",Ψ 1.03
same,HGERT/HG ZNF614 (Zinc finger protein 614),"Prostate cancer, DNA binding",0.98 Ω
same,HGERT/HG ZNFT84 (Zinc finger protein 784),"Prostate cancer, DNA binding",0.99 Ω
same,HGERT/HG pdcd6 (Aryl-hydrocarbon receptor repressor),"Prostate cancer, DNA binding",0.99 Ω
same,"HGERT/HG PIAS4 (Protein inhibitor of activated STAT, 4)",[5],Ψ 1.03
same,HGERT/HG RNF11 (Ring finger protein 11),[5],0.99 Ω
same,HGERT/HG RYBP (RING1 and YY1 binding protein),[5],Ψ 1.01
same,"HGERT/HG TTF1 (Transcription termination factor, RNA polymerase 1)",[5],Ψ 1.01
same,HGERT/HG JUP (Junction plakoglobin),"Prostate cancer, Endothelial cell-cell adhesion",Ψ 1.01
same,"HGERT/HG ACTN1 (Actinin, alpha 1)",[6],Ψ 1.01
same,HGERT/HG FBUM1 (Gene ID 54751),[6],Ψ 1.02
same,HGERT/HG PXN (Paxillin),[6],Ψ 1.01
same,"HGERT/HG RHOB (Ras homolog gene family, member B)",[6],Ψ 1.02
same,"HGERT/HG RHOJ (Ras homolog gene family, member J)",[6],Ψ 1.02
same,HGERT/HG RSU1 (Ras suppressor protein 1),[6],0.99 Ω
same,HGERT/HG VIM (Vimentin),[6],1.00 Ω
same,HGERT/HG COX8A (Cytochrome c oxidase subunit VIIIA (ubiquitous)),[7],0.99 Ω
same,HGERT/HG JUP (Junction plakaglobin),[7],Ψ 1.01
same,HGERT/HG MPHOSPH6 (M-phase phosphoprotein 6),[7],0.99 Ω
same,"HGERT/HG SDHD (Succinate dehydrogenase complex, subunit D, integral membrane protein)",[7],0.98 Ω
same,HGERT/HG SMOX (Spermine oxidase),[7],0.99 Ω
same,HGERT/HG TCF12 (Transcription factor 12),[7],0.99 Ω
same,HGERT/HG PAQR3 (Progestin and adipoQ receptor family member III),"Prostate cancer, Receptor activity",0.98 Ω
same,HGERT/HG PGRMC2 (Progesterone receptor membrane component 2),"Prostate cancer, Steroid hormone receptor activity",0.98 Ω
same,HGERT/HG SOAT1 (Sterol O-acyltransferase 1),"Prostate cancer, Sterol metabolism",0.97 Ω
same,HGERT/HG DUSP23 (Dual specificity phosphatase 23),[8],0.99 Ω
same,HGERT/HG PTPLAD1 (Protein tyrosine phosphatase-like A domain containing 1),[8],Ψ 1.01
same,"HGERT/HG SLC30A6 (Solute carrer family 30 (zinc transporter), member 6)",[9],0.99 Ω
same,"HGERT/HG SLC30A9 (Solute carrer family 30 (zinc transporter), member 9)",[9],0.99 Ω
same,"HGERT/HG SLC39A13 (Solute carrer family 39 (zinc transporter), member 13)",[9],Ψ 1.01
